In patent US8592477B2, “Polymorphic form of rotigotine and process for production” (UCB Pharma GmbH, priority 2007, dated 2013):

Experiments:
[1] = Solubility in EtOH at room temperature; type: physicochemical; conditions: form (II) vs form (I)
[2] = Thermodynamic stability from DSC data (melting point, enthalpy of fusion, Burger-Ramberger rules); type: physicochemical; conditions: heating rate 10° C./min, 30° C. to 140° C., all considered temperatures
Protocol: Further, differential scanning calorimetry (DSC) data reveal the difference between the two polymorphic forms of Rotigotine (FIGS. 7 and 8). […] Therefore, the two polymorphs of Rotigotine appear to be monotropically related.
Thermal behavior investigations of Rotigotine of polymorphic form (I) (batch 1608726) and of polymorphic form (II) (batch 7769396) were performed on a Mettler Toledo DSC system and on a TA instrument (Q-1000). The analyses were carried out with a heating rate of 10° C./min in pierced aluminum crucibles in a temperature range from 30° C. to 140° C.
In sum, the two polymorphic forms of Rotigotine can be differentiated by their respective melting point and their respective enthalpy of fusion. […] Therefore, the two polymorphs of Rotigotine are most probably monotropically related.

solubility in EtOH relative to polymorphic form (I) [1]: at least five times lower
Structure (SMILES): CCCN(CCc1cccs1)[C@H]1CCc2c(O)cccc2C1 [polymorphic form (II), (−)-5,6,7,8-tetrahydro-6-[propyl-[2-(2-thienyl)ethyl]-amino]-1-naphthalenol]
thermodynamic stability relative to the other polymorph [2]: thermodynamically more stable than polymorphic form (I)
